Assay results published in patent US20240109887A1 (Viva Star Biosciences (Suzhou) Co., Ltd., priority 2021, published 2024).

Experiments:
[1] = target: T1, KRAS G12D/SOS1 (Homo sapiens, UniProt Q07889); assay: biochemical
T1 sequence (Q07889 1-1333): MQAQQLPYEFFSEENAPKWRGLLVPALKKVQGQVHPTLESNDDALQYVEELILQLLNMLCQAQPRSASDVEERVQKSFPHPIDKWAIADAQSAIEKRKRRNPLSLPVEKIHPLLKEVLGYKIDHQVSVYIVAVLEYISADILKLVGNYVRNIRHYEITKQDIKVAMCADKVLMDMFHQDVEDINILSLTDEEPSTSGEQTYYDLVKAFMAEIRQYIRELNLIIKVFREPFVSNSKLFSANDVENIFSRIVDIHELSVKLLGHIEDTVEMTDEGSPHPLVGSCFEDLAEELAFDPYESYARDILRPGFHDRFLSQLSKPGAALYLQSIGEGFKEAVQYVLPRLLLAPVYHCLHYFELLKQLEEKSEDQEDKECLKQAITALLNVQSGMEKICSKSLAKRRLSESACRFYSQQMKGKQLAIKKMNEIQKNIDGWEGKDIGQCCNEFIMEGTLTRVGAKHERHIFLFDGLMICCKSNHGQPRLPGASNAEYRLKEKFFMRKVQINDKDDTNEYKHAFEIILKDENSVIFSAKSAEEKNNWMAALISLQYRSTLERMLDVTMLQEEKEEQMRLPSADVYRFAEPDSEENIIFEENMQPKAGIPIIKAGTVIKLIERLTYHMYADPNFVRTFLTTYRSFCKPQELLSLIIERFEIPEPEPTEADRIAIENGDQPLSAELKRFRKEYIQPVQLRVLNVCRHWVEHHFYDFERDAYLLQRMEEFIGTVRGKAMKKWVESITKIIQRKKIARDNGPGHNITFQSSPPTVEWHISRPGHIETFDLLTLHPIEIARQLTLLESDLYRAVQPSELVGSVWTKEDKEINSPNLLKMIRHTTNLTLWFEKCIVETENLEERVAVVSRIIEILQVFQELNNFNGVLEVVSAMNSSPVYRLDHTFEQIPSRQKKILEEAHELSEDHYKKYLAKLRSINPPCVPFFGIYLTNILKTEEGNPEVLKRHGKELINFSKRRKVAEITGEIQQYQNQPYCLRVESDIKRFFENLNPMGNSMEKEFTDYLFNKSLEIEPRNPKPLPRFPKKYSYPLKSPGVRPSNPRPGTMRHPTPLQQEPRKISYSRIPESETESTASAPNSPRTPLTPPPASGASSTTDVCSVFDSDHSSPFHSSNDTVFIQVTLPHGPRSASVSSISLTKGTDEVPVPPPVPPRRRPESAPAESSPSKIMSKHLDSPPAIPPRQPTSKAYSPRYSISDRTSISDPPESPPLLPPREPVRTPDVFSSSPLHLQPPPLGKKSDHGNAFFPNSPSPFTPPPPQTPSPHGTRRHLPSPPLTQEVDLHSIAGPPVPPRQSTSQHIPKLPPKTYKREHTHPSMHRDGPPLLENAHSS

[2] = target: T2, KRAS G12C/SOS1 (Homo sapiens, UniProt Q07889); assay: biochemical
T2 sequence (Q07889 1-1333): T1 sequence (Q07889 1-1333)

[3] = target: T3, KRAS-WT/SOS1 (Homo sapiens, UniProt Q07889); assay: biochemical
T3 sequence (Q07889 1-1333): T1 sequence (Q07889 1-1333)

[4] = target: T1, KRAS G12D/SOS1; assay: KRAS G12D/SOS1 binding assay (HTRF); conditions: Tag2-KRAS G12D with Tag1-SOS1, 10 μM GTP
[5] = target: T3, KRAS-WT/SOS1; assay: KRAS-WT/SOS1 binding assay (HTRF); conditions: Tag2-KRAS-WT with Tag1-SOS1, 10 μM GTP

| SMILES | IC50 [1] [nM] | IC50 [2] [nM] | IC50 [3] [nM] | also measured |
| --- | --- | --- | --- | --- |
| C[C@@H](NC(=O)c1cn(C2CCOCC2)c(=O)c2c[nH]nc12)c1cccc(C(F)(F)CO)c1 [Example 1, (R)—N-(1-(3-(1,1-difluoro-2-hydroxyethyl)phenyl)ethyl)-4-oxo-5-(tetrahydro-2H-pyran-4-yl)-4,5-dihydro-2H-pyrazolo[4,3-c]pyridine-7-carboxamide] | < 100 | < 100 |  |  |
| C[C@@H](NC(=O)c1cn(C2CCOCC2)c(=O)c2c[nH]nc12)c1cccc(C(F)F)c1F [Example 3, (R)-N-(1-(3-(difluoromethyl)-2-fluorophenyl)ethyl)-4-oxo-5-(tetrahydro-2H-pyran-4-yl)-4,5-dihydro-2H-pyrazolo[4,3-c]pyridine-7-carboxamide] | < 100 | < 100 | < 100 |  |
| C[C@@H](NC(=O)c1cn(C2(C)CC2)c(=O)c2cn[nH]c12)c1cccc(C(F)(F)F)n1 [Example 8, (R)-5-(1-methylcyclopropyl)-4-oxo-N-(1-(6-(trifluoromethyl)pyridin-2-yl)ethyl)-4,5-dihydro-1H-pyrazolo[4,3-c]pyridine-7-carboxamide] |  |  |  | Activity Data in Kras: SOS1 Assay, G12D [4]: C (C: 500~5 μM); Activity Data in Kras: SOS1 Assay, Wild Type [5]: C (C: 500~5 μM) |
| C[C@@H](NC(=O)c1cn([C@H]2CC[C@@H](C(=O)N(C)CCO)CC2)c(=O)c2c[nH]nc12)c1cccc2c1CCC2(F)F [Example 11, N—((R)-1-(1,1-difluoro-2,3-dihydro-1H-inden-4-yl)ethyl)-5-((1s,4S)-4-((2-hydroxyethyl)(methyl)carbamoyl)cyclohexyl)-4-oxo-4,5-dihydro-2H-pyrazolo[4,3-c]pyridine-7-carboxamide] |  |  |  | Activity Data in Kras: SOS1 Assay, G12D [4]: C (C: 500~5 μM); Activity Data in Kras: SOS1 Assay, Wild Type [5]: C (C: 500~5 μM) |
| COc1c(C2CCOCC2)cc(C(=O)N[C@H](C)c2cccc3c2CCC3(F)F)c2n[nH]cc12 [Example 16, N-[(1R)-1-(1,1-difluoro-2,3-dihydro-1H-inden-4-yl)ethyl]-4-methoxy-5-(oxan-4-yl)-2H-indazole-7-carboxamide] |  | 100 to 500 |  |  |
| COc1c(-c2ccc(=O)n(C)c2)cc(C(=O)N[C@H](C)c2cccc3c2CCC3(F)F)c2n[nH]cc12 [Example 17, N-[(1R)-1-(1,1-difluoro-2,3-dihydro-1H-inden-4-yl)ethyl]-4-methoxy-5-(1-methyl-6-oxo-1,6-dihydropyridin-3-yl)-2H-indazole-7-carboxamide] |  | < 100 |  |  |
| Cc1nc(N[C@H](C)c2cccc(C(F)(F)CO)c2)c2c(n1)N(C)C(=O)N(C1CCOCC1)C2 [Example 25, (R)-5-((1-(3-(1,1-difluoro-2-hydroxyethyl)phenyl)ethyl)amino)-1,7-dimethyl-3-(tetrahydro-2H-pyran-4-yl)-3,4-dihydropyrimido[4,5-d]pyrimidin-2(1H)-one] |  | 100 to 500 | 100 to 500 |  |
| Cc1nc(N[C@H](C)c2cccc3c2CCC3(F)F)c2c(n1)N(C)C(=O)N(C1CCOCC1)C2 [Example 26, (R)-5-((1-(1,1-difluoro-2,3-dihydro-1H-inden-4-yl)ethyl)amino)-1,7-dimethyl-3-(tetrahydro-2H-pyran-4-yl)-3,4-dihydropyrimido[4,5-d]pyrimidin-2(1H)-one] |  | 100 to 500 |  |  |
| COc1c(OC2CC(F)(F)C2)cc(C(=O)N[C@H](C)c2cccc3c2CCC3(F)F)c2n[nH]cc12 [Example 31, (R)-N-(1-(1,1-difluoro-2,3-dihydro-1H-inden-4-yl)ethyl)-5-(3,3-difluorocyclobutoxy)-4-methoxy-2H-indazole-7-carboxamide] |  |  |  | Activity Data in Kras: SOS1 Assay, G12D [4]: C (C: 500~5 μM); Activity Data in Kras: SOS1 Assay, Wild Type [5]: C (C: 500~5 μM) |
| COc1c(C2CCNCC2)cc(C(=O)N[C@H](C)c2cccc(C(F)(F)CO)c2)c2[nH]ncc12 [Example 35, N-[(1R)-1-[3-(1,1-difluoro-2-hydroxyethyl)phenyl]ethyl]-4-methoxy-5-(piperidin-4-yl)-1H-indazole-7-carboxamide] | < 100 |  | < 100 |  |
| COc1c(C2CCCNC2)cc(C(=O)N[C@H](C)c2cccc(C(F)(F)CO)c2)c2[nH]ncc12 (stereo partly drawn) [Example 36, N—((R)-1-(3-(1,1-difluoro-2-hydroxyethyl)phenyl)ethyl)-4-methoxy-5-(piperidin-3-yl)-1H-indazole-7-carboxamide] | < 100 |  | < 100 |  |
| COc1c(C2CCCN(C)C2)cc(C(=O)N[C@H](C)c2cccc(C(F)(F)CO)c2)c2[nH]ncc12 (stereo partly drawn) [Example 37, N—((R)-1-(3-(1,1-difluoro-2-hydroxyethyl)phenyl)ethyl)-4-methoxy-5-(1-methylpiperidin-3-yl)-1H-indazole-7-carboxamide] | < 100 |  | < 100 |  |
| C[C@@H](NC(=O)c1cn(C2CCOCC2)c(=O)c2cc[nH]c12)c1cccc2c1CCC2(F)F [Example 38, (R)—N-(1-(1,1-difluoro-2,3-dihydro-1H-inden-4-yl)ethyl)-4-oxo-5-(tetrahydro-2H-pyran-4-yl)-4,5-dihydro-1H-pyrrolo[3,2-c]pyridine-7-carboxamide] |  | < 100 |  |  |
| C[C@@H](NC(=O)c1cn(C2CCOCC2)c(=O)c2cc[nH]c12)c1cccc(C(F)(F)CO)c1 [Example 39, (R)—N-(1-(3-(1,1-difluoro-2-hydroxyethyl)phenyl)ethyl)-4-oxo-5-(tetrahydro-2H-pyran-4-yl)-4,5-dihydro-1H-pyrrolo[3,2-c]pyridine-7-carboxamide] |  | < 100 |  |  |
| C[C@@H](NC(=O)c1cn(C2CCOCC2)c(=O)c2cc[nH]c12)c1cccc(C(F)F)c1F [Example 40, (R)—N-(1-(3-(difluoromethyl)-2-fluorophenyl)ethyl)-4-oxo-5-(tetrahydro-2H-pyran-4-yl)-4,5-dihydro-1H-pyrrolo[3,2-c]pyridine-7-carboxamide] |  | < 100 |  |  |
| C[C@@H](NC(=O)c1cn(C2(C)CC2)c(=O)c2cc[nH]c12)c1cccc2c1CCC2(F)F [Example 41, (R)—N-(1-(1,1-difluoro-2,3-dihydro-1H-inden-4-yl)ethyl)-5-(1-methylcyclopropyl)-4-oxo-4,5-dihydro-1H-pyrrolo[3,2-c]pyridine-7-carboxamide] | < 100 |  | < 100 |  |
| C[C@@H](NC(=O)c1cn(C2(C)CC2)c(=O)c2cc[nH]c12)c1cccc(C(F)(F)CO)c1 [Example 42, (R)—N-(1-(3-(1,1-difluoro-2-hydroxyethyl)phenyl)ethyl)-5-(1-methylcyclopropyl)-4-oxo-4,5-dihydro-1H-pyrrolo[3,2-c]pyridine-7-carboxamide] | < 100 |  | < 100 |  |
| COc1c(N2CCOCC2)nc(C(=O)N[C@H](C)c2cccc3c2CCC3(F)F)c2n[nH]cc12 [Example 44, (R)—N-(1-(1,1-difluoro-2,3-dihydro-1H-inden-4-yl)ethyl)-4-methoxy-5-morpholino-2H-pyrazolo[3,4-c]pyridine-7-carboxamide] |  |  |  | Activity Data in Kras: SOS1 Assay, G12D [4]: C (C: 500~5 μM); Activity Data in Kras: SOS1 Assay, Wild Type [5]: C (C: 500~5 μM) |
